Assays:
[1] = system: CoA transferase (propionyl-CoA transferase or pct) from Megasphaera elsdenii; assay: CoA transferase activity assay (DTNB/citrate synthase coupled, OD 412 nm) with cell free extract; assay type: biochemical; conditions: 25 μM CoA-ester substrate, 200 mM sodium acetate, pH 7.0; cell free extract of E. coli expressing the CoA transferase
Method: The plasmid was transformed into Tuner (DE3) pLacI chemically competent cells (Novagen, Madison, Wis.), and expression from the construct tested. Briefly, a culture was grown overnight to saturation and diluted 1:20 the following morning in fresh LB medium with the appropriate antibiotics. The culture was grown at 37° C. with aeration to an OD600 of about 0.6. The culture was induced with IPTG at a final concentration of 100 μM. The culture was incubated for an additional two hours at 37° C. with aeration. Aliquots were taken pre-induction and 2 hours post-induction for SDS-PAGE analysis. A band of the expected molecular weight (55,653 Daltons predicted from the sequence) was observed after IPTG treatment. This band was not observed in cells containing a plasmid lacking the nucleic acid encoding the transferase.
Cell free extracts were prepared to assess enzymatic activity. Briefly, the cells were harvested by centrifugation and disrupted by sonication. The sonicated cell suspension was centrifuged to remove cell debris, and the supernatant was used in the assays.
Transferase activity was measured in the following assay. The assay mixture used contained 100 mM potassium phosphate buffer (pH 7.0), 200 mM sodium acetate, 1 mM dithiobisnitrobenzoate (DTNB), 500 μM oxaloacetate, 25 μM CoA-ester substrate, and 3 μg/mL citrate synthase. If present, the CoA transferase transfers the CoA from the CoA ester to acetate to form acetyl-CoA. The added citrate synthase condenses oxaloacetate and acetyl-CoA to form citrate and free CoASH. The free CoASH complexes with DTNB, and the formation of this complex can be measured by a change in the optical density at 412 nm. The activity of the CoA transferase was measured using the following substrates: lactyl-CoA, propionyl-CoA, acrylyl-CoA, and 3-hydroxypropionyl-CoA. The units/mg of protein was calculated using the following formula: (ΔE/min*Vf*dilution factor)/(VS*14.2)=units/mL where ΔE/min is the change in absorbance per minute at 412 nm, Vf is the final volume of the reaction, and VS is the volume of sample added. The total protein concentration of the cell free extract was about 1 mg/mL so the units/mL equals units/mg.

[2] = system: 3-hydroxypropionyl-CoA dehydratase (OS19); assay: 3-hydroxypropionyl-CoA dehydratase specificity control reactions, MALDI-TOF MS; assay type: biochemical, Chloroflexus aurantiacus; conditions: 1 mM CoA ester, 80% D2O
Method: Cell free extracts were prepared by growing cells as described above. The cells were harvested by centrifugation and disrupted by sonication. The sonicated cell suspension was centrifuged to remove cell debris, and the supernatant was used in the assays. The ability of the 3-hydroxypropionyl-CoA dehydratase to perform the following three reactions was measured using MALDI-TOF MS:
The assay mixture contained 50 mM Tris-HCl (pH 7.5), 1 mM CoA ester, and about 1 μg cell free extract. Reactions were allowed to proceed at room temperature and were stopped by adding 1 volume 10% trifluroacetic acid (TFA). The reaction mixtures were purified prior to MALDI-TOF MS analysis using Sep Pak Vac C18 50 mg columns (Waters, Inc.). The columns were conditioned with 1 mL methanol and then equilibrated with two washes of 1 mL 0.1% TFA. The sample was applied to the column, and the flow through was discarded. The column was washed twice with 1 mL 0.1% TFA. The sample was eluted in 200 μL 40% acetonitrile, 0.1% TFA. The acetonitrile was removed by centrifugation in vacuo. Samples were prepared for MALDI-TOF MS analysis by mixing 1:1 with 110 mM sinapinic acid in 0.1% TFA, 67% acetonitrile. The samples were allowed to air dry.
A series of control reactions were performed to confirm the specificity of the 3-hydroxypropionyl-CoA dehydratase. […]

[3] = OS17 polypeptide activity, disappearance of NAD(P)H at 340 nm; assay type: biochemical, Chloroflexus aurantiacus; conditions: 3-HP 1 mM as substrate; protein extract of BL21-DE3/pET11a-OS17
Method: To assay OS17 polypeptide function, a 100 mL culture of BL21-DE3/pET11a-OS17 cells was started using 1 mL of overnight grown culture as an inoculum. The culture was grown to an OD of 0.5-0.6 and was induced with 100 μM IPTG. After two and a half hours of induction, the cells were harvested by spinning at 8000 rpm in the floor centrifuge. The cells were washed with 10 mM Tris-HCl (pH 7.8) and passed twice through a French Press at a gauge pressure of 1000 psi. The cell debris was removed by centrifugation at 15,000 rpm. The activity of the OS17 polypeptide was measured spectrophotometrically, and the products formed during this enzymatic transformation were detected by LC/MS. The assay mix was as follows (J. Bacteriol., 181:1088-1098 (1999)):
The initial rate of reaction was measured by monitoring the disappearance of NAD(P)H at 340 nm. The activity of the OS17 polypeptide was measured using 3-HP as the substrate. The units/mL of total protein was calculated using the formula set forth in Example 1. The activity of the expressed OS17 polypeptide was calculated to be 0.061 U/mL of total protein. The reaction products were purified using a Sep Pak Vac column (Waters). The column was conditioned with 1 mL methanol and washed two times with 0.5 mL 0.1% TFA. […] The reaction products were analyzed by LC/MS.

CC(C)(COP(=O)(O)OP(=O)(O)OC[C@H]1O[C@@H](n2cnc3c(N)ncnc32)[C@H](O)[C@@H]1OP(=O)(O)O)[C@@H](O)C(=O)NCCC(=O)NCCSC(=O)CCO [3-Hydroxypropionyl-CoA]
CoA transferase activity, Units/mg [1]: 110 Units/mg
activity of 3-hydroxypropionyl-CoA dehydratase enzyme on CoA ester [2]: active

C=CC(=O)SCCNC(=O)CCNC(=O)[C@H](O)C(C)(C)COP(=O)(O)OP(=O)(O)OC[C@H]1O[C@@H](n2cnc3c(N)ncnc32)[C@H](O)[C@@H]1OP(=O)(O)O [Acrylyl-CoA]
CoA transferase activity, Units/mg [1]: 118 Units/mg

CC(O)C(=O)SCCNC(=O)CCNC(=O)[C@H](O)C(C)(C)COP(=O)(O)OP(=O)(O)OC[C@H]1O[C@@H](n2cnc3c(N)ncnc32)[C@H](O)[C@@H]1OP(=O)(O)O (stereo partly shown) [Lactyl-CoA]
CoA transferase activity, Units/mg [1]: 211 Units/mg
activity of 3-hydroxypropionyl-CoA dehydratase enzyme on CoA ester [2]: not active

CCC(=O)SCCNC(=O)CCNC(=O)[C@H](O)C(C)(C)COP(=O)(O)OP(=O)(O)OC[C@H]1O[C@@H](n2cnc3c(N)ncnc32)[C@H](O)[C@@H]1OP(=O)(O)O [Propionyl-CoA]
CoA transferase activity, Units/mg [1]: 144 Units/mg

OS17 polypeptide: C. aurantiacus polypeptide having CoA synthase, dehydratase, and dehydrogenase activity (propionyl-CoA synthetase)
activity of the expressed OS17 polypeptide [3]: 0.061 U/mL of total protein

— patent US9340803B2, “3-hydroxypropionic acid and other organic compounds” (Cargill, Incorporated, priority 2000, dated 2016)
